# US8455469B2, “Use of norgestimate as a selective inhibitor of TRPC3, TRPC6 and TRPC7 ion channels” (Sanofi, priority 2007, dated 2013)
# Target: T1, TRPC3 (Homo sapiens, UniProt Q13507)
# T1 construct: expressed in transfected cells; host or cells: HEK293 (inducible expression)
# T1 sequence (Q13507 1-921): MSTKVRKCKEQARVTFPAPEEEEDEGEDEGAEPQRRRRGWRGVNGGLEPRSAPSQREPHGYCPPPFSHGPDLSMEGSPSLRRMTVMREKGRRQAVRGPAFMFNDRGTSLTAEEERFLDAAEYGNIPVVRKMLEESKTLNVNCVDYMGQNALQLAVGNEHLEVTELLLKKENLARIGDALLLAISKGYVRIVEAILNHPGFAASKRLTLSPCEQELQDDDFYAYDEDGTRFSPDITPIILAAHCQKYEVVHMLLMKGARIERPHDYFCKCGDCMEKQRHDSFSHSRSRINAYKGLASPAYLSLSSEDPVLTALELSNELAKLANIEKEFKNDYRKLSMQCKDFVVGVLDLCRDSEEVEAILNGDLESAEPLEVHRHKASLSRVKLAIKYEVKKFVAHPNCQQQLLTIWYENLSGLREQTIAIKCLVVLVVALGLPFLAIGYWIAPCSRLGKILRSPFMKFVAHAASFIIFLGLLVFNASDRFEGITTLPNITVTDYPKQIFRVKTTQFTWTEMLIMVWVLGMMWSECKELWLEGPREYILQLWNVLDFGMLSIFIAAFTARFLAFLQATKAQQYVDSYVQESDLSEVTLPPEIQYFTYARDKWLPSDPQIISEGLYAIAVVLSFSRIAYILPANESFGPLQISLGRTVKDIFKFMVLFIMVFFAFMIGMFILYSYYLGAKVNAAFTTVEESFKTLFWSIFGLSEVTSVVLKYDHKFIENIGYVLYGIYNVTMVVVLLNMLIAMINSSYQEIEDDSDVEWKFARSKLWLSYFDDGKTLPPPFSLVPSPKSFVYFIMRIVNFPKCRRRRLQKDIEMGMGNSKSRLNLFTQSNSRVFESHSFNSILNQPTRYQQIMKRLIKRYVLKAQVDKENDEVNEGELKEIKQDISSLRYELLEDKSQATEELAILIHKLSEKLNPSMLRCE
# Assay: FLIPR Ca2+ influx measurement, OAG-activated TRPC3 HEK293 cells
# Assay type: cell-based
# Settings: 30 μM OAG
# Description: In general, cells are provided which express a TRPC channel. Such cells can be produced using genetic methods known to a person skilled in the art. After having induced the expression of the TRPC channel, cells are usually plated into e.g. microtiter plates and grown. Usually the cells grow at the bottom of multiwell plates and are fixed. Thereafter, the cells are generally washed and loaded with a dye in a suitable loading buffer, preferably with a fluorescent dye such as fluo4am. After having removed the loading buffer, the cells are incubated with the test compound or modulator, in particular with a biochemical or chemical test compound as described above, e.g. in the form of a chemical compound library. Ca^2+ measurements can be carried out using e.g. a Fluorescence Imaging Plate Reader (FLIPR). To stimulate Ca^2+ influx through the TRPC channel a channel activator such as OAG should generally be applied.
# TRPC3 and TRPC6 were directly activated by application of oleoyl-2-acetyl-sn-glycerol (OAG), a membrane permeable diacylglycerol analogue.
# (A, C) Time-dependent changes of intracellular Ca^2+ concentration ([Ca^2+]i) of fluo-4-loaded induced TRPC3 HEK293 cells (A) and TRPC6 HEK293 cells (C). […] Measurements were performed in 96er well plates using FLIPR (Molecular Devices, Sunnyvale, Calif., USA) (B, D) Determination of norgestimates IC50 value on TRPC3 (B) and TRPC6 (D). […]
compound,measurement,setting,value
"C#C[C@]1(OC(C)=O)CC[C@H]2[C@@H]3CCC4=C/C(=N/O)CC[C@@H]4[C@H]3CC[C@@]21CC [norgestimate, D-17β-acetoxy-B-ethyl-17α ethinyl-gon-4-en-3-one oxime]",IC50,"FLIPR, n=2",2800 ± 400 nM
same,TRPC3-mediated Ca2+ influx following application of OAG,cells preincubated with 30 μM norgestimate,strongly reduced
